One may read the pKa as the negative logarithm of the acid dissociation constant.

A short description of series [1]: pKa of amine lipid by TNS fluorescence. Type of series: physicochemical. Particulars: probe TNS (6-(p-toluidino)-2-naphthalenesulfonic acid sodium salt), unformulated amine lipid in ethanol, sodium phosphate buffers -9.0. The gist of the method: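 Unformulated amine lipid, about 100 μM final, in 0.1 M sodium phosphate buffers spanning pH 4.5–9.0 with TNS. Fluorescence read at ex 321/em 448 nm; normalized data fitted sigmoidally to give pKa.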

For the next series, the system named is mouse TTR gene. The series is described as follows: In vivo editing in mouse liver, LNP with Cas9 mRNA and sgRNA G282, NGS. Particulars: Table 3; guide G282; CD-1 female mice, 0.1 mpk i.v., liver at 6 or 7 days; Exp. 1, 8, 9, 10. The method, then:
(§1) LNPs were prepared using various amine lipids in a 4-component lipid system consisting of an ionizable lipid (e.g. an amine lipid), DSPC, cholesterol and PEG-2k-DMG. In assays for percent liver editing in mice, Cas9 mRNA and chemically modified sgRNA targeting a mouse sequence were formulated in LNPs, at either a 1:1 w/w ratio or a 1:2 w/w ratio.
(§2) The lipid components were dissolved in 100% ethanol with the lipid component molar ratios described below. The chemically modified sgRNA and Cas9 mRNA were combined and dissolved in 25 mM citrate, 100 mM NaCl, pH 5.0, resulting in a concentration of total RNA cargo of approximately 0.45 mg/mL. The LNPs were formulated with an N/P ratio of about 6, with the ratio of chemically modified sgRNA: Cas9 mRNA at either a 1:1 or 1:2 w/w ratio as described below.
(§3) CD-1 female mice, ranging from 6-10 weeks of age were used in each study. Animals were weighed and grouped according to body weight for preparing dosing solutions based on group average weight. LNPs were dosed via the lateral tail vein in a volume of 0.2 mL per animal (approximately 10 mL per kilogram body weight). The animals were periodically observed for adverse effects for at least 24 hours post dose.
(§4) For studies measuring in vivo editing in liver, CD-1 female mice were dosed at 0.1 mpk unless otherwise noted. Animals were euthanized at 6 or 7 days by exsanguinationvia cardiac puncture under isoflourane anesthesia. Liver tissue was collected from each animal for DNA extraction and analysis. Blood was collected into serum separator tubes or into tubes containing buffered sodium citrate for plasma as described herein. Cohorts of mice were measured for editing by Next-Generation Sequencing (NGS).
(§5) In brief, to quantitatively determine the efficiency of editing at the target location in the genome, genomic DNA was isolated and deep sequencing was utilized to identify the presence of insertions and deletions introduced by gene editing.
(§6) PCR primers were designed around the target site (e.g., B2M), and the genomic area of interest was amplified. Additional PCR was performed according to the manufacturer's protocols (Illumina) to add the necessary chemistry for sequencing. The amplicons were sequenced on an Illumina MiSeq instrument. The reads were aligned to the relevant reference genome (e.g., GRCm38) after eliminating those having low quality scores. The resulting files containing the reads were mapped to the reference genome (BAM files), where reads that overlapped the target region of interest were selected and the number of wild type reads versus the number of reads which contain an insertion, substitution, or deletion was calculated.
(§7) The editing percentage (e.g., the “editing efficiency” or “percent editing”) is defined as the total number of sequence reads with insertions or deletions over the total number of sequence reads, including wild type.
(§8) We assessed in vivo editing efficiency for materials delivered with formulations including various amine lipid compounds. Editing was measured using either G282 (SEQ ID No: 1) which targets the mouse TTR gene or G650 (SEQ ID No. 2) which targets the mouse B2M gene. Lipids described above were assessed for efficacy through in vivo editing experiments. LNPs were formulated at a 1:1 w/w ratio of sgRNA to Cas9 mRNA, and at an N/P ratio of about 6. Molar concentrations of lipids in the lipid component of the LNPs are expressed as mol % amine lipid/DSPC/cholesterol/PEG-2k-DMG, e.g. 50/10/38.5/1.5. The final LNPs were characterized to determine the encapsulation efficiency, polydispersity index, and average particle size according to the analytical methods provided above. Analysis of average particle size, polydispersity (PDI), total RNA content and encapsulation efficiency of RNA are shown in Table 2.
To assess whether the editing was dose responsive, experiments were performed in vivo at various LNP dose levels. […]

Another series relates to mouse TTR. The experiment in a line: Serum TTR ELISA in mice after LNP delivery. Type of series: in vivo. Particulars: Table 3, guide G282, CD-1 female mice, 0.1 mpk i.v.; for Serum TTR: Exp. 1, 8, 9, 10; for Serum TTR % TSS: percentage of vehicle control (TSS). The gist of the method: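 Female CD-1 mice received LNP at 0.1 mpk unless noted; serum was collected 6 or 7 days later. Total serum TTR was measured by mouse prealbumin ELISA at 10,000- and/or 2,500-fold dilution and is expressed as a percentage of vehicle control.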
(An ELISA detects its analyte on a solid surface through an enzyme-linked reagent.)

A further series has as its system mouse B2M gene. The series is described as follows: In vivo editing in mouse liver, LNP with Cas9 mRNA and sgRNA G650, NGS. The conditions noted are these: Table 3; guide G650; CD-1 female mice, 0.1 mpk i.v., liver at 6 or 7 days; Exp. 2-7. Here is the method: as §1, §2, §3, §4, §5, §6, §7, §8

Turning to `CCCCC/C=C\C/C=C\CCCCCCCC(=O)OCC(COC(=O)CCCCCCC/C=C\C/C=C\CCCCC)OC(=O)CCC(CCCCCCCC)OC(=O)N(C)CCN(C)C` (stereo not drawn) [Compound 38, 2-((4-(((2-(dimethylamino)ethyl)(methyl)carbamoyl)oxy)dodecanoyl)oxy) propane-1,3-diyl (9Z,9′Z,12Z,12′Z)-bis(octadeca-9,12-dienoate)], the pKa in series [1] was 5.62. For the same compound, the “Editing Mean % Indel” value in the series with mouse TTR gene worked out at 26.7%. In the series with mouse TTR, the “Serum TTR” value turned out to be 301 µg/mL and the “Serum TTR % TSS” value stood at 39% TSS.
Take `CCCCC/C=C\C/C=C\CCCCCCCC(=O)OCC(COC(=O)CCC(CCCCCCCCCCCC)OC(=O)OCCCN(C)C)OC(=O)CCCCCCC/C=C\C/C=C\CCCCC` (stereo not drawn) [Compound 30, 9-dodecyl-2-methyl-7,12-dioxo-6,8,13-trioxa-2-azahexadecane-15,16-diyl (9Z,9′Z,12Z,12′Z)-bis(octadeca-9,12-dienoate)]: the pKa in series [1] worked out at 6.53. The “Editing Mean % Indel” value in the series on mouse TTR gene is on record as 10.4%. In the series with mouse TTR, the “Serum TTR” value came to 841 µg/mL and the “Serum TTR % TSS” value turned out to be 95% TSS.
Regarding `CCCCC/C=C\C/C=C\CCCCCCCC(=O)OCC(COC(=O)CCCCCCC/C=C\C/C=C\CCCCC)OC(=O)CCC(CCCCCCCCCCCC)OC(=O)OCCCN(C)CC` (stereo not drawn) [Compound 3, 2-((4-(((3-(ethyl(methyl)amino)propoxy)carbonyl)oxy)hexadecanoyl)oxy)propane-1,3-diyl (9Z,9′Z,12Z,12′Z)-bis(octadeca-9,12-dienoate)], the pKa in series [1] turned out to be 5.89. In addition, the “Editing Mean % Indel” value with mouse TTR gene is listed as 23.7%. In the series on mouse TTR, the “Serum TTR” value came to 691 µg/mL and the “Serum TTR % TSS” value is 78% TSS.
Regarding `CCCCC/C=C\C/C=C\CCCCCCCC(=O)OCC(COC(=O)CCCCCCC/C=C\C/C=C\CCCCC)OC(=O)CCC(CCCC)OC(=O)NCCN(C)CC` (stereo not drawn) [Compound 42, 2-((4-(((2-(ethyl(methyl)amino)ethyl)carbamoyl)oxy)octanoyl)oxy)propane-1,3-diyl (9Z,9′Z,12Z,12′Z)-bis(octadeca-9,12-dienoate)], the pKa in series [1] was determined as 6.52. The “Editing Mean % Indel” value in the series on mouse TTR gene was determined as 21.6%. Further, in the series on mouse TTR, the “Serum TTR” value came to 473 µg/mL and the “Serum TTR % TSS” value is reported as 58% TSS.
Take `CCCCCC/C=C\COC(=O)CCCCCCCC(=O)OCC(COC(=O)CCCCCCCC(=O)OC/C=C\CCCCCC)OC(=O)CCC(CCCCCCCCCCCC)OC(=O)NCC1CCCN1C` (stereo not drawn) [Compound 24, O′1,O1-(2-((4-((((1-methylpyrrolidin-2-yl)methyl)carbamoyl)oxy)hexadecanoyl)oxy)propane-1,3-diyl)9,9′-di((Z)-non-2-en-1-yl) di(nonanedioate)]: the pKa in series [1] was 6.1. The “Editing Mean % Indel” value in the series with mouse B2M gene is recorded as 6.8%.
Take `CCCCC/C=C\C/C=C\CCCCCCCC(=O)OCC(COC(=O)CCCCCCC/C=C\C/C=C\CCCCC)OC(=O)CCC(CCCCCCCCCCCC)OC(=O)OC1CCN(CC)CC1` (stereo not drawn) [Compound 6, 2-((4-((((1-ethylpiperidin-4-yl)oxy)carbonyl)oxy)hexadecanoyl)oxy)propane-1,3-diyl (9Z,9′Z,12Z,12′Z)-bis(octadeca-9,12-dienoate)]: the pKa in series [1] is 5.37. Moreover, the “Editing Mean % Indel” value in the series on mouse B2M gene is 0.4%.
As to `CCCCC/C=C\C/C=C\CCCCCCCC(=O)OCC(COC(=O)CCCCCCC/C=C\C/C=C\CCCCC)OC(=O)CCC(CCCCCCCC)OC(=O)OCCCN(C)C` (stereo not drawn) [Compound 31, 2-((4-(((3-(dimethylamino)propoxy)carbonyl)oxy)dodecanoyl)oxy)propane-1,3-diyl (9Z,9′Z,12Z,12′Z)-bis(octadeca-9,12-dienoate)], the pKa in series [1] is 6.28. For the same compound, the “Editing Mean % Indel” value with mouse B2M gene was 15.6%.
As for `CCCCCC/C=C\COC(=O)CCCCCCCC(=O)OCC(COC(=O)CCCCCCCC(=O)OC/C=C\CCCCCC)OC(=O)CCC(CCCCCCCCCCCC)OC(=O)OCCCN(C)C` (stereo not drawn) [Compound 22, O′1,O1-(2-((4-(((3-(dimethylamino)propoxy)carbonyl)oxy)hexadecanoyl)oxy)propane-1,3-diyl) 9,9′-di((Z)-non-2-en-1-yl) di(nonanedioate)], the pKa in series [1] amounted to 6.06. Also, the “Editing Mean % Indel” value in the series on mouse B2M gene is 6.7%.
With `CCCCC/C=C\C/C=C\CCCCCCCC(=O)OCC(COC(=O)CCCCCCC/C=C\C/C=C\CCCCC)OC(=O)CCC(CCCCCCCC)OC(=O)OCCCN(CC)CC` (stereo not drawn) [Compound 32, 2-((4-(((3-(diethylamino)propoxy)carbonyl)oxy)dodecanoyl)oxy)propane-1,3-diyl (9Z,9′Z,12Z,12′Z)-bis(octadeca-9,12-dienoate)], the pKa in series [1] worked out at 5.64. Besides, in the series with mouse B2M gene, the “Editing Mean % Indel” value was found to be 11.6%.
In the same order, the values of `CCCCC/C=C\C/C=C\CCCCCCCC(=O)OCC(COC(=O)CCCCCCC/C=C\C/C=C\CCCCC)OC(=O)CCC(CCCCCCCCCCCC)OC(=O)OCCC1CCCN1C` (stereo not drawn) [Compound 16, 2-((4-(((2-(1-methylpyrrolidin-2-yl)ethoxy)carbonyl)oxy)hexadecanoyl)oxy) propane-1,3-diyl (9Z,9′Z,12Z,12′Z)-bis(octadeca-9,12-dienoate)] are 5.72 and 10.1%.
Turning to `CCCCCC/C=C\COC(=O)CCCCCCCC(=O)OCC(COC(=O)CCCCCCCC(=O)OC/C=C\CCCCCC)OC(=O)CCC(CCCCCCCCCCCC)OC(=O)NCCN(C)CC` (stereo not drawn) [Compound 23, O′1,O1-(2-((4-(((2-(ethyl(methyl)amino)ethyl)carbamoyl)oxy)hexadecanoyl)oxy)propane-1,3-diyl) 9,9′-di((Z)-non-2-en-1-yl) di(nonanedioate)], the pKa in series [1] was determined as 6.19. Moreover, the “Editing Mean % Indel” value in the series on mouse B2M gene amounted to 7.3%.
For `CCCCC/C=C\C/C=C\CCCCCCCC(=O)OCC(COC(=O)CCCCCCC/C=C\C/C=C\CCCCC)OC(=O)CCC(CCCCCCCCCCCC)OC(=O)NCCN(C)C` (stereo not drawn) [Compound 12, 2-((4-(((2-(dimethylamino)ethyl)carbamoyl)oxy)hexadecanoyl)oxy)propane-1,3-diyl (9Z,9′Z,12Z,12′Z)-bis(octadeca-9,12-dienoate)], in series [1], the pKa was found to be 6.82. In addition, the “Editing Mean % Indel” value in the series on mouse B2M gene is on record as 5.5%.
As to `CCCCC/C=C\C/C=C\CCCCCCCC(=O)OCC(COC(=O)CCCCCCC/C=C\C/C=C\CCCCC)OC(=O)CCC(CCCCCCCCCCCCCCCC)OC(=O)OCCCN(C)CC` (stereo not drawn) [Compound 18, 2-((4-(((3-(ethyl(methyl)amino)propoxy)carbonyl)oxy)icosanoyl)oxy)propane-1,3-diyl (9Z,9′Z,12Z,12′Z)-bis(octadeca-9,12-dienoate)], the pKa in series [1] was found to be 5.83. In addition, the “Editing Mean % Indel” value with mouse B2M gene came to 4.5%.
Consider `CCCCC/C=C\C/C=C\CCCCCCCC(=O)OCC(COC(=O)CCCCCCC/C=C\C/C=C\CCCCC)OC(=O)CCC(CCCCCCCCCCCC)OC(=O)OCCCCN(CC)CC` (stereo not drawn) [Compound 14, 2-((4-(((4-(diethylamino)butoxy)carbonyl)oxy)hexadecanoyl)oxy)propane-1,3-diyl (9Z,9′Z,12Z,12′Z)-bis(octadeca-9,12-dienoate)], for which the pKa in series [1] was found to be 5.91. Also, in the series on mouse B2M gene, the “Editing Mean % Indel” value is 20.6%.

Values taken from US12077483B2, “Modified amine lipids” (Intellia Therapeutics, Inc., priority 2018, dated 2024).
